# Measured values as given in patent US20170037028A1 (BAYER PHARMA AKTIENGESELLSCHAFT, priority 2013, published 2017).
# Biological target: T1, GLUT1 (Homo sapiens, UniProt P11166)
# T1 sequence (P11166 1-492): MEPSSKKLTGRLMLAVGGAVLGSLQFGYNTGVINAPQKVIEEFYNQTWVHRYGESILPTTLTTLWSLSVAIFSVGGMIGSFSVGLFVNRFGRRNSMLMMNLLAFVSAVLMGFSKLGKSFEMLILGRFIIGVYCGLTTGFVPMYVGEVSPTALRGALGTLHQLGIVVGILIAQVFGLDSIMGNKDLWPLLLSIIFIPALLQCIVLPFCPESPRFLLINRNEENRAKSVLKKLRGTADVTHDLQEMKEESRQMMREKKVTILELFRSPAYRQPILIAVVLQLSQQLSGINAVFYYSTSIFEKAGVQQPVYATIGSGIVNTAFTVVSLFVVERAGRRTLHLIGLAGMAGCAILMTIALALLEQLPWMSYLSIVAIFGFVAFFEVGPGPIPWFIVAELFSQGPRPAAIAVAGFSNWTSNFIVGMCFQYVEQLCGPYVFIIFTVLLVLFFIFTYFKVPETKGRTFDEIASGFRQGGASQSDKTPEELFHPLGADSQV
# Assay: Indirect measurement of GLUT1 activity by quantification of intracellular ATP levels (glucose induced ATP increase)
# Type: cell-based
# Set-up: endogenous in cells; host or cells: DLD1 or CHO-K1
# Conditions: read-out: IC50 regarding glucose induced ATP increase (GLUT1 inhibition)
# In short: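 Intracellular ATP was measured by CellTiter-Glo luminescence as an indirect readout of transport: glucose-driven for GLUT1, fructose-driven for GLUT2. DLD1 or CHO-K1 cells were used alongside an oxidative phosphorylation inhibitor. Beforehand, cells were held overnight in glucose-free 1% FCS medium to deplete ATP.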
row,IC50,SMILES
1,5.5 nM,"Cc1c(NC(=O)c2cc(C(N)=O)nc3cc(F)c(Cl)cc23)c(C(F)(F)F)nn1Cc1c(F)cc(C#N)cc1F [Example 398, 6-chloro-N^4-[1-(4-cyano-2,6-difluorobenzyl)-5-methyl-3-(trifluoromethyl)-1H-pyrazol-4-yl]-7-fluoroquinoline-2,4-dicarboxamide]"
2,4.5 nM,"Cc1c(NC(=O)c2cc(C(N)=O)nc3ccc(Br)cc23)c(C(F)(F)F)nn1Cc1c(F)cc(C#N)cc1F [Example 399, 6-bromo-N^4-[1-(4-cyano-2,6-difluorobenzyl)-5-methyl-3-(trifluoromethyl)-1H-pyrazol-4-yl]quinoline-2,4-dicarboxamide]"
3,1260 nM,"Cc1c(NC(=O)c2cc(C(N)=O)nc3cc(F)ccc23)c(C(F)(F)F)nn1Cc1ccc(-c2nnn[nH]2)cc1 [Example 400, 7-fluoro-N^4-{5-methyl-1-[4-(1H-tetrazol-5-yl)benzyl]-3-(trifluoromethyl)-1H-pyrazol-4-yl}quinoline-2,4-dicarboxamide]"
4,10 nM,"COCc1ccc(Cn2nc(C(F)(F)F)c(NC(=O)c3cc(C(N)=O)nc4cc(F)ccc34)c2C)cc1 [Example 401, 7-fluoro-N^4-{1-[4-(methoxymethyl)benzyl]-5-methyl-3-(trifluoromethyl)-1H-pyrazol-4-yl}quinoline-2,4-dicarboxamide]"
5,6.7 nM,"COCc1ccc(Cn2nc(C(F)(F)F)c(NC(=O)c3cc(C(N)=O)nc4cccc(F)c34)c2C)cc1 [Example 402, 5-fluoro-N^4-{1-[4-(methoxymethyl)benzyl]-5-methyl-3-(trifluoromethyl)-1H-pyrazol-4-yl}quinoline-2,4-dicarboxamide]"
6,1 nM,"Cc1c(NC(=O)c2cc(C(N)=O)nc3cc(F)ccc23)c(C(F)(F)F)nn1Cc1ccc(CC#N)cc1 [Example 403, N^4-{1-[4-(cyanomethyl)benzyl]-5-methyl-3-(trifluoromethyl)-1H-pyrazol-4-yl}-7-fluoroquinoline-2,4-dicarboxamide]"
7,1.4 nM,"CNC(=O)c1nc(Cn2nc(C)c(NC(=O)c3cc(C(F)(F)F)nc4ccc(Br)cc34)c2C)no1 [Example 404, 6-bromo-N-(3,5-dimethyl-1-{[5-(methylcarbamoyl)-1,2,4-oxadiazol-3-yl]methyl}-1H-pyrazol-4-yl)-2-(trifluoromethyl)quinoline-4-carboxamide]"
8,242 nM,"Cc1nn(CC2CCN(C(=O)OC(C)(C)C)CC2)c(C)c1NC(=O)c1cc(C(N)=O)nc2ccccc12 [Example 405, tert-butyl 4-[(4-{[(2-carbamoylquinolin-4-yl)carbonyl]amino}-3,5-dimethyl-1H-pyrazol-1-yl)methyl]piperidine-1-carboxylate]"
9,1530 nM,"Cc1nn(CC2CCNCC2)c(C)c1NC(=O)c1cc(C(N)=O)nc2ccccc12 [Example 406, N^4-[3,5-dimethyl-1-(piperidin-4-ylmethyl)-1H-pyrazol-4-yl]quinoline-2,4-dicarboxamide]"
10,2.1 nM,"CCS(=O)(=O)N1CCC(Cn2nc(C)c(NC(=O)c3cc(C(N)=O)nc4ccccc34)c2C)CC1 [Example 407, N^4-(1-{[1-(ethylsulfonyl)piperidin-4-yl]methyl}-3,5-dimethyl-1H-pyrazol-4-yl)quinoline-2,4-dicarboxamide]"
11,7.8 nM,"Cc1cc(Cn2nc(C(F)(F)F)c(NC(=O)c3cc(C(N)=O)nc4cc(F)c(Cl)cc34)c2C)no1 [Example 408, 6-chloro-7-fluoro-N^4-{5-methyl-1-[(5-methyl-1,2-oxazol-3-yl)methyl]-3-(trifluoromethyl)-1H-pyrazol-4-yl}quinoline-2,4-dicarboxamide]"
12,5.5 nM,"CCc1nc(Cn2nc(C(F)(F)F)c(NC(=O)c3cc(C(N)=O)nc4cc(F)c(Cl)cc34)c2C)no1 [Example 409, 6-chloro-N^4-{1-[(5-ethyl-1,2,4-oxadiazol-3-yl)methyl]-5-methyl-3-(trifluoromethyl)-1H-pyrazol-4-yl}-7-fluoroquinoline-2,4-dicarboxamide]"
13,8.9 nM,"CCc1cc(Cn2nc(C(F)(F)F)c(NC(=O)c3cc(C(N)=O)nc4cc(F)c(Cl)cc34)c2C)on1 [Example 410, 6-chloro-N^4-{1-[(3-ethyl-1,2-oxazol-5-yl)methyl]-5-methyl-3-(trifluoromethyl)-1H-pyrazol-4-yl}-7-fluoroquinoline-2,4-dicarboxamide]"
14,1.1 nM,"Cc1cc(Cn2nc(C)c(NC(=O)c3cc(C(N)=O)nc4cc(F)c(Cl)cc34)c2C)on1 [Example 411, 6-chloro-N^4-{3,5-dimethyl-1-[(3-methyl-1,2-oxazol-5-yl)methyl]-1H-pyrazol-4-yl}-7-fluoroquinoline-2,4-dicarboxamide]"
15,2.1 nM,"Cc1cc(Cn2nc(C)c(NC(=O)c3cc(C(N)=O)nc4cc(F)c(Cl)cc34)c2C)no1 [Example 412, 6-chloro-N^4-{3,5-dimethyl-1-[(5-methyl-1,2-oxazol-3-yl)methyl]-1H-pyrazol-4-yl}-7-fluoroquinoline-2,4-dicarboxamide]"
16,5.6 nM,"CCS(=O)(=O)N1CCC(Cn2nc(C(F)(F)F)c(NC(=O)c3cc(C(N)=O)nc4cc(F)c(Cl)cc34)c2C)CC1 [Example 413, 6-chloro-N^4-[1-{[1-(ethylsulfonyl)piperidin-4-yl]methyl}-5-methyl-3-(trifluoromethyl)-1H-pyrazol-4-yl]-7-fluoroquinoline-2,4-dicarboxamide]"
17,1.3 nM,"CCc1cc(Cn2nc(C)c(NC(=O)c3cc(C(N)=O)nc4cc(F)c(Cl)cc34)c2C)on1 [Example 414, 6-chloro-N^4-{1-[(3-ethyl-1,2-oxazol-5-yl)methyl]-3,5-dimethyl-1H-pyrazol-4-yl}-7-fluoroquinoline-2,4-dicarboxamide]"
18,2.7 nM,"Cc1nn(Cc2cc(C(C)C)no2)c(C)c1NC(=O)c1cc(C(N)=O)nc2cc(F)c(Cl)cc12 [Example 416, 6-chloro-N^4-(3,5-dimethyl-1-{[3-(propan-2-yl)-1,2-oxazol-5-yl]methyl}-1H-pyrazol-4-yl)-7-fluoroquinoline-2,4-dicarboxamide]"
19,0.7 nM,"Cc1nn(Cc2cc(C3CC3)on2)c(C)c1NC(=O)c1cc(C(N)=O)nc2cc(F)c(Cl)cc12 [Example 417, 6-chloro-N^4-{1-[(5-cyclopropyl-1,2-oxazol-3-yl)methyl]-3,5-dimethyl-1H-pyrazol-4-yl}-7-fluoroquinoline-2,4-dicarboxamide]"
20,4.1 nM,"Cc1nn(Cc2cc(C3CC3)on2)c(C)c1NC(=O)c1cc(C(N)=O)nc2cc(F)ccc12 [Example 418, N^4-{1-[(5-cyclopropyl-1,2-oxazol-3-yl)methyl]-3,5-dimethyl-1H-pyrazol-4-yl}-7-fluoroquinoline-2,4-dicarboxamide]"
21,4.2 nM,"Cc1nn(Cc2cc(C3CC3)on2)c(C)c1NC(=O)c1cc(C(N)=O)nc2ccccc12 [Example 419, N^4-{1-[(5-cyclopropyl-1,2-oxazol-3-yl)methyl]-3,5-dimethyl-1H-pyrazol-4-yl}quinoline-2,4-dicarboxamide]"
22,4.9 nM,"Cc1cc(Cn2nc(C(F)(F)F)c(NC(=O)c3cc(C(N)=O)nc4cc(F)c(Cl)cc34)c2C)on1 [Example 420, 6-chloro-7-fluoro-N^4-{5-methyl-1-[(3-methyl-1,2-oxazol-5-yl)methyl]-3-(trifluoromethyl)-1H-pyrazol-4-yl}quinoline-2,4-dicarboxamide]"
23,2.9 nM,"Cc1c(NC(=O)c2cc(C(N)=O)nc3cc(F)c(Cl)cc23)c(C(F)(F)F)nn1Cc1ccc(C#N)s1 [Example 421, 6-chloro-N^4-{1-[(5-cyano-2-thienyl)methyl]-5-methyl-3-(trifluoromethyl)-1H-pyrazol-4-yl}-7-fluoroquinoline-2,4-dicarboxamide]"
24,5 nM,Cc1nn(Cc2ccc(C#N)s2)c(C)c1NC(=O)c1cc(C(N)=O)nc2cc(F)ccc12 [Example 422]
25,6.7 nM,"Cc1c(NC(=O)c2cc(C(N)=O)nc3cc(F)ccc23)c(C(F)(F)F)nn1Cc1ncc(C#N)cn1 [Example 423, N^4-{1-[(5-cyanopyrimidin-2-yl)methyl]-5-methyl-3-(trifluoromethyl)-1H-pyrazol-4-yl}-7-fluoroquinoline-2,4-dicarboxamide]"
26,6.7 nM,"Cc1c(NC(=O)c2cc(C(N)=O)nc3cccc(F)c23)c(C(F)(F)F)nn1Cc1ncc(C#N)cn1 [Example 424, N^4-{1-[(5-cyanopyrimidin-2-yl)methyl]-5-methyl-3-(trifluoromethyl)-1H-pyrazol-4-yl}-5-fluoroquinoline-2,4-dicarboxamide]"
27,4.9 nM,"Cc1c(NC(=O)c2cc(C(N)=O)nc3ccc(O)cc23)c(C(F)(F)F)nn1Cc1ccc(C#N)cc1 [Example 425, N^4-[1-(4-cyanobenzyl)-5-methyl-3-(trifluoromethyl)-1H-pyrazol-4-yl]-6-hydroxyquinoline-2,4-dicarboxamide]"
28,2530 nM,"Cc1c(NC(=O)c2cc(C(=O)NS(C)(=O)=O)nc3ccccc23)c(C(F)(F)F)nn1Cc1ccc(C#N)cc1 [Example 426, N^4-[1-(4-cyanobenzyl)-5-methyl-3-(trifluoromethyl)-1H-pyrazol-4-yl]-N^2-(methylsulfonyl)quinoline-2,4-dicarboxamide]"
